Key:
[1] = tested on: RPE-specific Cib2^KO mice; experiment: TEM analysis of the RPE at the conclusion of treatment; type: in vivo, mouse; conditions: 9-cis retinal-treated RPE-specific Cib2^KO mice
Procedure: FIG. 4. […] Scale bar. 2 μm.
Sections for EM were prepared as previously described 48. Briefly, hemisected eyecups were rinsed in buffer and postfixed in 2% osmium tetroxide and 1.5% potassium ferrocyanide in dH2O for 2 hr, dehydrated in a graded ethanol series, and embedded in Epon-Araldite (Electron Microscopy Sciences, Hatfield, PA). Semi-thin sections (4 μm) were cut and stained with 1% cresyl violet. Ultra-thin sections (90 nm) were cut on an ultramicrotome (Ultracut E 701704, Reichert-Jung, Buffalo, NY) using a diamond knife (Micro Star Technologies, Inc., Huntsville, TX), collected on copper grids, counterstained with 4% methanolic uranyl acetate (Electron Microscopy Sciences, Hatfield, PA), and outer retinal morphology examined using a transmission electron microscope (TEM; Model 300: Phillips, Eindhoven, The Netherlands). Photomicrographs were captured with a digital camera (15 megapixel digital camera, Scientific Instruments and Applications, Duluth, GA) and Maxim DL Version 5 software (Diffraction Limited, Ottawa, Canada).

[2] = tested on: RPE-specific Cib2^KO mice; conditions: mouse, in vivo
Text: For comparison, untreated WT control mice (black squares) are replotted from FIG. 6b. c, Schematic of treatment paradigm in RPE-specific Cib2^KO injected with 9-cis retinal and control mice injected with vehicle. d. […] TEM micrographs for indicated genotype at the end of the treatment paradigm as outlined in c (n=3/genotype).
To further assess the potential clinical translatability of exogenous retinoids, we tested an extended treatment paradigm following injection of 9-cis retinal in RPE-specific Cib2^KO mice (FIG. 4c). […] To assess medium-term efficacy of exogenous retinoid therapy, we extended the paradigm further by one month.
Electroretinograms (ERG) were recorded as earlier described^14 with modifications. Mice, overnight dark-adapted, were anesthetized with ketamine-xylazine (100 mg/kg and 10 mg/kg, respectively) and pupils were dilated with 1% Tropicamide. A gold wire lens electrode was placed on the cornea, a platinum reference electrode in the mouth, and a ground electrode on the tail. To assess rod-driven responses, increasing scotopic stimuli were presented sequentially (0.003962233 to 3.147314 cd×s/m2) with 5-60 sec intervals using UTAS BigShot (LKC Technologies, Gaithersburg, MD). At least 3 waveforms per intensity were averaged. For cone function evaluation, photopic responses to a single bright flash (3.15 cd×s/m2) under a steady rod-suppressing field of cd×s/m2. Waves were analyzed using EM for Windows software (LKC Technologies).

[3] = molecular target: T1, TSC1 (Homo sapiens, UniProt Q92574); experiment: NanoSPD (nanoTRAP) interaction assay in COS-7 cells, TSC1; type: binding; conditions: FLAG-tagged TSC1
T1 construct: host or cells: COS-7
T1 sequence (Q92574 1-1164): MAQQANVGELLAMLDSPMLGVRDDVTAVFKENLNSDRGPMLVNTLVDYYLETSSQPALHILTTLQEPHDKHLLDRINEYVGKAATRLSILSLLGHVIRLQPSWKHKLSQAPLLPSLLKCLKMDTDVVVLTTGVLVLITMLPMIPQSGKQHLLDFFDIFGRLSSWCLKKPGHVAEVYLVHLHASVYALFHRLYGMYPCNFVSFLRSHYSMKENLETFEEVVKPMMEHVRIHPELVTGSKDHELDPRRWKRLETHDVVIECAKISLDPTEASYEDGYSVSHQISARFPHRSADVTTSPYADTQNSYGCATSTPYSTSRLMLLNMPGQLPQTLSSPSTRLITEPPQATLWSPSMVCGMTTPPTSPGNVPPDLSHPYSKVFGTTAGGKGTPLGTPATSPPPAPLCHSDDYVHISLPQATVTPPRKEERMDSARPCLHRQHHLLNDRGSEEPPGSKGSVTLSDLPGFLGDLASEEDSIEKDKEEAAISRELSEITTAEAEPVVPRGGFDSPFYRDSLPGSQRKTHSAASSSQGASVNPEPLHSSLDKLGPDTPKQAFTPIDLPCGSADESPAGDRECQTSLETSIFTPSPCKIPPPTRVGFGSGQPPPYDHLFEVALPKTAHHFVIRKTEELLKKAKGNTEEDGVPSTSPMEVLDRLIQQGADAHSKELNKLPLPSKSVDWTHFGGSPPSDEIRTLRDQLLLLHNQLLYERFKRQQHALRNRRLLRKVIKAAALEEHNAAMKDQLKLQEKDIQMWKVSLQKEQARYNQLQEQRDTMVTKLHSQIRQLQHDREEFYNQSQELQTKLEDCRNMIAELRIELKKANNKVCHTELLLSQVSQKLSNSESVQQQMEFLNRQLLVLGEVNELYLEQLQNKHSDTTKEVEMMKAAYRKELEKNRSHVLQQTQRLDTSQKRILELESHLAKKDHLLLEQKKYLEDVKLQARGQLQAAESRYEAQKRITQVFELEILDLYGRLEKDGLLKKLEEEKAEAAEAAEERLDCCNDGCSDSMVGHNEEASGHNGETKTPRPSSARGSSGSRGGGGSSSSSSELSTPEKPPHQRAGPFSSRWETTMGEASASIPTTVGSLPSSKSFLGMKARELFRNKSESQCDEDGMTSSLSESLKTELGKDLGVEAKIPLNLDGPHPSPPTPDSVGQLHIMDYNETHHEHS
Text: (§1) FIG. 14. […] Arrowheads indicate filopodia tip accumulation of hCIB2-eGFP, * indicates no accumulation of indicted constructs in the red channel. c. Representative confocal images (top panel) showing CIB2 (green) interaction with Rheb (red) and Raptor (red) using NanoTRAP assay. […] Arrowheads indicate filopodia tip accumulation of indicated constructs, * indicates no accumulation of indicted construct in the red or far-red channel. Scale bar: 10 μm. d. Quantification for nanoTRAP assay for images shown above. *** p<0.001 by one-way ANOVA. e, Co-IP experiments show interaction between Raptor and CIB2.
(§2) To reveal the molecular mechanism of CIB2-mediated mTORC1 modulation, we focused on the TSC-Rheb-mTORC1 axis. We performed an interaction screen of specific proteins including TSC1, TSC2, mTORC1-specific subunit Raptor, mTOR kinase, and Rheb. We used a recently-published quantitative interaction assay known as nanoscale pulldown 2.0 (NanoSPD), in which eGFP-nanobody tag fused to the myosin-HMM domain (nanoTRAP) preferentially migrates to the filopodia (Bird et al., Molecular Biology of the Cell 28, 463-475 (2017)). CIB2-eGFP (bait) migrated efficiently to filopodia in COS-7 cells only in the presence of the nanoTRAP. […] Many downstream and upstream targets of mTORC1 regulate its activity via binding to the mTORC1-specific subunit Raptor. […]

[4] = molecular target: T2, TSC2 (Homo sapiens, UniProt P49815); experiment: NanoSPD (nanoTRAP) interaction assay in COS-7 cells, TSC2; type: binding; conditions: FLAG-tagged TSC2
T2 construct: host or cells: COS-7
T2 sequence (P49815 whole entry): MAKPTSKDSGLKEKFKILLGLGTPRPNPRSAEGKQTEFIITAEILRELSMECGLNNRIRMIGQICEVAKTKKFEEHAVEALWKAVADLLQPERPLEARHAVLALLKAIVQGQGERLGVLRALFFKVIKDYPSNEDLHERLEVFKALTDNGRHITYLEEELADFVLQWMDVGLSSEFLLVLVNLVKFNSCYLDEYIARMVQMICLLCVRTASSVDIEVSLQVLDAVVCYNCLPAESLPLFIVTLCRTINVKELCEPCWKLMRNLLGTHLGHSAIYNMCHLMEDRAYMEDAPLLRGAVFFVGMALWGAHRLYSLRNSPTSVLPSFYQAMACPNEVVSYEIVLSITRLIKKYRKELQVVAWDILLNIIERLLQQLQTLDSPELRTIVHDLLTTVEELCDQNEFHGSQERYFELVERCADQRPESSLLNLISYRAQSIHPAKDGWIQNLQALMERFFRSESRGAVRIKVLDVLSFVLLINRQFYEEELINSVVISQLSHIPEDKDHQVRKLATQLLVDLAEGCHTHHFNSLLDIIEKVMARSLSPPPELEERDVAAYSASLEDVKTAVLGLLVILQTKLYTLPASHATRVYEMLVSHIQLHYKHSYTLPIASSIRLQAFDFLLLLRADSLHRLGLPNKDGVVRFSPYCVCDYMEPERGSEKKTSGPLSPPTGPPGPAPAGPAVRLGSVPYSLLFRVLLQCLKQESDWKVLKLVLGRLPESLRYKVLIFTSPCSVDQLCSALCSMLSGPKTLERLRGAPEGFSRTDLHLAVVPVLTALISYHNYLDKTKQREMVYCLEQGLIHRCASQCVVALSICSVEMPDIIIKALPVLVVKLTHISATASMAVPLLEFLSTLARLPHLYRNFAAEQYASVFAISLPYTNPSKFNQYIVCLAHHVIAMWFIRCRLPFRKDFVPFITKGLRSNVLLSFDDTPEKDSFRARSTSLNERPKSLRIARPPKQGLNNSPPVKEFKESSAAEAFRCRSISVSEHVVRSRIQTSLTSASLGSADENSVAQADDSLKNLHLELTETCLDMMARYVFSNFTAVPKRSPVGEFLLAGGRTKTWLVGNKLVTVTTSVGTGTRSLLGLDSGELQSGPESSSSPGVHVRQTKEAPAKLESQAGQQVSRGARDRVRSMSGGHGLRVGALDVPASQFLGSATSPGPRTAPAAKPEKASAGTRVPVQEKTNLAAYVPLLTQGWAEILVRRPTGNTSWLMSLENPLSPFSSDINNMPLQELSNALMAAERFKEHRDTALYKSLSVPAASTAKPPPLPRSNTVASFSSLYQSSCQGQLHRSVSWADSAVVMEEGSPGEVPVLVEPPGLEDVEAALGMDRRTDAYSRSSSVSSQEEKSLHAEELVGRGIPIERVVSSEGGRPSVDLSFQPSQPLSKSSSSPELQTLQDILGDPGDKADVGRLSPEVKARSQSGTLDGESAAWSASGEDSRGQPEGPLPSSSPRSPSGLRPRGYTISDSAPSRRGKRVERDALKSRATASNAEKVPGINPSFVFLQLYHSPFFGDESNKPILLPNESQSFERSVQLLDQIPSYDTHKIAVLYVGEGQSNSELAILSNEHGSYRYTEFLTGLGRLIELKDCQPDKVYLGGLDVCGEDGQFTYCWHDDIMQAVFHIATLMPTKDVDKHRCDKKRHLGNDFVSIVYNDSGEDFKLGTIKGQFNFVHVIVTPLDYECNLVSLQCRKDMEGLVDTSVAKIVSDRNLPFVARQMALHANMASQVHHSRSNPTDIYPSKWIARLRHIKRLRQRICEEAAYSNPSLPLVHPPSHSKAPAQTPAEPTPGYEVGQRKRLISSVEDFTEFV
Text: as §1, §2

[5] = molecular target: Rheb (Homo sapiens, UniProt Q15382); experiment: Co-IP of tdTomato-CIB2 with HA-GST-Rheb and Rheb variants; type: binding; set-up: host or cells: HEK293; conditions: HEK293 lysates
Chain of Rheb (Q15382 1-181): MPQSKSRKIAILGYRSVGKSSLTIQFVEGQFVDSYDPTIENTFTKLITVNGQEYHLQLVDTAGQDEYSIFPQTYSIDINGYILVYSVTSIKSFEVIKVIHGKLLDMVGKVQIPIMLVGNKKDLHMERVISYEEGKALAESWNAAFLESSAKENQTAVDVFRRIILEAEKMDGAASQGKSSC
Procedure: FIG. 3. […] Note the stronger interaction between CIB2 and Rheb S20N variant as compared to Q64L variant (GDP vs GTP mimetic, respectively). c, CIB2 preferentially interacts with GDP-loaded Rheb is further confirmed by co-IP experiments of HA-GST-Rheb immobilized on […] and loaded with either GDP or GTPγS, followed by incubation with tdTomato-CIB2 lysate. d, Proposed model of CIB2 function in retinal sensory cells. […] Loss of CIB2 results in reduced autophagy and exacerbated mTORC1 signaling, thus leading to RPE pathology and secondary PR dysfunction. e, f Immunoblots from RPE/choroid lysates from dry AMD or control age-matched donors indicate reduced CIB2 expression, overactive mTORC1 and reduced autophagy, quantified in panel f. Unpaired two-tailed 1 test was used to determine statistical significance. p value of <0.05 (*), <0.01 (**), and <0.001 (***). Please note that one control sample (ψ) is outliner and is highly variant from the rest, Re-quantification, omitting the highly variant control sample, is shown in FIG. 15. g.
We tested the essentiality of nucleotide binding state of Rheb using co-IP assays. […] Next, we used the Q64L and […] Rheb variants, which mimic the GTP- and GDP-bound state, respectively. […]

`CC1=C(/C=C/C(C)=C\C=C\C(C)=C\C=O)C(C)(C)CCC1` [9-cis retinal] was tested, and the “Mice with vacuoles and/or sub-RPE drusen present in the RPE (TEM)” value [1] was 3 of 3, the “ERG amplitude differences between groups four weeks post-injection” value [2] was “returned to their baseline levels” and the “ERG amplitudes after the treatment paradigm (overall)” value [2] was “temporarily but reproducibly improved ERG amplitudes”. For the same molecule, the “ERG amplitudes four weeks after the 2nd injection” value [2] was “diverged significantly”, the “ERG amplitudes two weeks after the 1st injection” value [2] was “indistinguishable from those of vehicle-injected RPE-Cre+ controls” and the “ERG amplitudes two weeks after the 2nd injection” value [2] was “no discernable inter-group differences”.

B1: CIB2-eGFP: eGFP-tagged human CIB2 used as bait in the NanoSPD assay (protein)
chain: MGNKQTIFTEEQLDNYQDCTFFNKKDILKLHSRFYELAPNLVPMDYRKSPIVHVPMSLIIQMPELRENPFKERIVAAFSEDGEGNLTFNDFVDMFSVLCESAPRELKANYAFKIYDFNTDNFICKEDLELTLARLTKSELDEEEVVLVCDKVIEEADLDGDGKLGFADFEDMIAKAPDFLSTFHIRI
modifications: left off: large carriers
notes: eGFP-tagged human CIB2 used as bait in the NanoSPD assay
B1 was tested, and the “Co-accumulation with TSC1 (NanoSPD)” value [3] was “did not show any co-accumulation” and the “Co-accumulation with TSC2 (NanoSPD)” value [4] was “did not show any co-accumulation”.

B2: tdTomato-CIB2: tdTomato tagged CIB2 expressed in HEK293 cells (tdTomato-C1-mCIB2 construct) (protein)
chain: MGNKQTIFTEEQLDNYQDCTFFNKKDILKLHARFYELAPNLVPMDYRKSPIVHVPMSLIIQMPELRENPFKERIVEAFSEDGEGNLTFNDFVDMFSVLCESAPRELKANYAFKIYDFNTDNFICKEDLEMTLARLTKSELEEDEVVLVCDKVIEEADLDGDGKLGFADFEDMIAKAPDFLSTFHIRI
modifications: left off: large carriers
For B2, the “Co-immunoprecipitation with HA-GST-Rheb” value [5] was “co-immunoprecipitated with HA-GST-Rheb”.

From patent US12661385B2, “Modulation of mTORCI activity and autophagy via CIB2-RHEB interaction” (University of Maryland, Baltimore, priority 2018, dated 2026)
